Assay results reported in US20260200928A1, “THERAPEUTIC COMPOUNDS” (Sanofi, priority 2022, published 2026).

Biological target: T1, human IL-17A (Homo sapiens, UniProt Q16552)
T1 construct: purchased R&D Systems 7955-IL/CF
T1 sequence (Q16552 24-155): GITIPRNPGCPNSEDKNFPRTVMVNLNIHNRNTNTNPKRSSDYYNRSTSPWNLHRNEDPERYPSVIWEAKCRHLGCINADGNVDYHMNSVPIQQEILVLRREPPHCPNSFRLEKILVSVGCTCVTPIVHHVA
Assay: IL-17A AlphaLISA competition assay (block of IL-17A binding to its receptor IL-17RA)
Conditions: mean IC50 (n≥2), block of IL-17A binding to IL-17RA
Method in brief: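 Human recombinant IL-17A (7.5 nM stock) pre-incubated 30 min at RT with compound, then IL-17RA/Fc (5 nM stock) added for 90 min; AlphaLISA read with anti-Fc acceptor beads, biotinylated anti-IL-17A antibody (5 nM) and streptavidin donor beads (3 h, dark). IC50 from 4-parameter logistic fit, normalised to DMSO and 4 μM reference inhibitor; n≥2.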

SMILES | IC50 [nM]
Cn1nccc1C(=O)N[C@H](C(=O)Nc1cc(OC2CCNC2=O)ccn1)[C@H]1CC[C@H](C)CC1 (stereo partly drawn) [Example 118, 1-methyl-N-((1S)-1-((1r,4S)-4-methylcyclohexyl)-2-oxo-2-((4-((2-oxopyrrolidin-3-yl)oxy)pyridin-2-yl)amino)ethyl)-1H-pyrazole-5-carboxamide] | 8970
COCC(NC(=O)CCC(F)(F)F)c1ccnc(NC(=O)[C@@H](NC(=O)OC(C)(C)C)C2CCC(F)(F)CC2)c1 (single isomer, unassigned) [Example 132] | 7700
CCc1nocc1C(=O)N[C@H](C(=O)Nc1cc(C(NC(=O)CCC(F)(F)F)C2CC2)ccn1)C1CCC(F)(F)CC1 (stereo partly drawn) [Example 161, N-((1S)-2-((4-(cyclopropyl(4,4,4-trifluorobutanamido)methyl)pyridin-2-yl)amino)-1-(4,4-difluorocyclohexyl)-2-oxoethyl)-3-ethylisoxazole-4-carboxamide] | 615
COCC(c1ccnc(NC(=O)[C@@H](NC(=O)OC(C)(C)C)[C@H]2CC[C@H](C)CC2)c1)N1C[C@@H](C(F)(F)F)NC1=O (single isomer, unassigned) [Example 65, tert-butyl ((S)-2-((4-((S or R)-2-methoxy-1-((S)-2-oxo-4-(trifluoromethyl)imidazolidin-1-yl)ethyl)pyridin-2-yl)amino)-1-((1r,4S)-4-methylcyclohexyl)-2-oxoethyl)carbamate] | 522
COCC(c1ccnc(NC(=O)[C@@H](NC(=O)c2ncsc2C#N)[C@H]2CC[C@H](C)CC2)c1)N1C[C@@H](C(F)(F)F)NC1=O (single isomer, unassigned) [Example 92] | 539
CCc1nocc1C(=O)NC(C(=O)Nc1cc(CC2=C[C@@H](C(F)(F)F)NC2=O)ccn1)C1CCC(F)(F)CC1 (stereo in doubt) [Example 216, N-((1S)-1-(4,4-difluorocyclohexyl)-2-oxo-2-((4-((2-oxo-5-(trifluoromethyl)-2,5-dihydro-1H-pyrrol-3-yl)methyl)pyridin-2-yl)amino)ethyl)-3-ethylisoxazole-4-carboxamide] | 137
CCn1nccc1C(=O)NC(C(=O)Nc1cc(CN2CC(C(F)(F)F)NC2=O)ccn1)C1CCC(F)CC1 [Example 293, 1-ethyl-N-((S)-1-((1r,4S)-4-fluorocyclohexyl)-2-oxo-2-((4-(((S)-2-oxo-4-(trifluoromethyl)imidazolidin-1-yl)methyl)pyridin-2-yl)amino)ethyl)-1H-pyrazole-5-carboxamide] | 153
Cc1cnn(C)c1Cc1ccnc(NC(=O)C(NC(=O)c2ccnn2C)C2CCC(F)(F)CC2)c1 (stereo not shown) [Example 53] | 3880
COC[C@H](c1ccnc(NC(=O)[C@@H](NC(=O)c2ccnn2C(C)C)C2CC(F)(F)C2)c1)N1C[C@@H](C(F)(F)F)NC1=O [Example 262, N—((S)-1-(3,3-difluorocyclobutyl)-2-((4-((S)-2-methoxy-1-((S)-2-oxo-4-(trifluoromethyl)imidazolidin-1-yl)ethyl)pyridin-2-yl)amino)-2-oxoethyl)-1-isopropyl-1H-pyrazole-5-carboxamide] | 198
CC(C)(C)OC(=O)N[C@H](C(=O)Nc1cc(C(NC(=O)CCC(F)(F)F)C2CC2)ccn1)[C@H]1CC[C@H](C)CC1 (single isomer, unassigned) [Example 73] | 1010
CC(C)c1nocc1C(=O)N[C@H](C(=O)Nc1cc(CN2C[C@@H](C(F)(F)F)NC2=O)ccn1)C1CCC(F)(F)CC1 [Example 21, N-((S)-1-(4,4-difluorocyclohexyl)-2-oxo-2-((4-(((S)-2-oxo-4-(trifluoro-methyl)imidazolidin-1-yl)methyl)pyridin-2-yl)amino)ethyl)-3-isopropyl-isoxazole-4-carboxamide] | 138
COCC(c1ccnc(NC(=O)C(NC(=O)C(F)(F)C(C)C)C2CCC(C)CC2)c1)N1CC(C(F)(F)F)NC1=O (single isomer, unassigned) [Example 255] | 71
O=C(N[C@H](C(=O)Nc1cc(CN2C[C@@H](C(F)(F)F)NC2=O)ccn1)C1CCC(F)(F)CC1)c1conc1C1CC1 [Example 20, 3-cyclopropyl-N-((S)-1-(4,4-difluorocyclohexyl)-2-oxo-2-((4-(((S)-2-oxo-4-(trifluoromethyl)-imidazolidin-1-yl)methyl)-pyridin-2-yl)amino)ethyl)-isoxazole-4-carboxamide] | 183
C[C@H]1CC[C@H]([C@@H](NC(=O)OCc2ccccc2)C(=O)Nc2cc(CN3C[C@H](C(F)(F)F)NC3=O)ccn2)CC1 [Example 5, Benzyl ((S)-1-((1r,4S)-4-methylcyclohexyl)-2-oxo-2-((4-(((S)-2-oxo-4-(trifluoromethyl)imidazolidin-1-yl)methyl)pyridin-2-yl)amino)ethyl)carbamate] | 179
CC(C)(C)OC(=O)N1CCn2c(ccc2C(=O)N[C@H](C(=O)Nc2cc(CN3C[C@@H](C(F)(F)F)NC3=O)ccn2)C2CCC(F)(F)CC2)C1 [Example 11, Tert-butyl 6-(((S)-1-(4,4-difluorocyclohexyl)-2-oxo-2-((4-(((S)-2-oxo-4-(trifluoromethyl)imidazolidin-1-yl)methyl)pyridin-2-yl)amino)ethyl)carbamoyl)-3,4-dihydropyrrolo[1,2-a]pyrazine-2(1H)-carboxylate] | 359

Stronger by IC50, values ahead:

IC50 [nM] | SMILES
18 | COC[C@H](c1ccnc(NC(=O)[C@@H](NC(=O)c2nonc2C(C)C)C2CCC(F)(F)CC2)c1)N1C[C@@H](C(F)(F)F)NC1=O [Example 195, N-((S)-1-(4,4-difluorocyclohexyl)-2-((4-((S)-2-methoxy-1-((S)-2-oxo-4-(trifluoromethyl)imidazolidin-1-yl)ethyl)pyridin-2-yl)amino)-2-oxoethyl)-4-isopropyl-1,2,5-oxadiazole-3-carboxamide]
58 | CCc1conc1C(=O)N[C@H](C(=O)Nc1cc([C@@H](COC)N2C[C@@H](C(F)(F)F)NC2=O)ccn1)C1CCC(Cl)CC1 (stereo partly drawn) [Example 314, N-((1S)-1-(4-chlorocyclohexyl)-2-((4-((S)-2-methoxy-1-((S)-2-oxo-4-(trifluoromethyl)imidazolidin-1-yl)ethyl)pyridin-2-yl)amino)-2-oxoethyl)-4-ethylisoxazole-3-carboxamide]
17 | CCc1nonc1C(=O)N[C@H](C(=O)Nc1cc([C@@H](COC)N2C[C@@H](C(F)(F)F)NC2=O)ccn1)C1CCC(F)(F)CC1 [Example 187, N—((S)-1-(4,4-Difluorocyclohexyl)-2-((4-((S)-2-methoxy-1-((S)-2-oxo-4-(trifluoromethyl)imidazolidin-1-yl)ethyl)pyridin-2-yl)amino)-2-oxoethyl)-4-ethyl-1,2,5-oxadiazole-3-carboxamide]
53 | CCc1nocc1C(=O)N[C@H](C(=O)Nc1cc([C@@H](COC)N2CC(F)(F)CNC2=O)ccn1)C1CCC(F)(F)CC1 [Example 178, N-((S)-2-((4-((S)-1-(5,5-difluoro-2-oxotetrahydropyrimidin-1(2H)-yl)-2-methoxyethyl)pyridin-2-yl)amino)-1-(4,4-difluorocyclohexyl)-2-oxoethyl)-3-ethylisoxazole-4-carboxamide]
20 | O=C(N[C@H](C(=O)Nc1cc(C(C2CC2)N2C[C@@H](C(F)(F)F)NC2=O)ccn1)C1CCC(F)(F)CC1)c1nonc1C1CC1 (single isomer, unassigned) [Example 163, 4-Cyclopropyl-N-((S)-2-((4-((R or S)-cyclopropyl((S)-2-oxo-4-(trifluoromethyl)imidazolidin-1-yl)methyl)pyridin-2-yl)amino)-1-(4,4-difluorocyclohexyl)-2-oxoethyl)-1,2,5-oxadiazole-3-carboxamide]
33 | CC[C@H](c1ccnc(NC(=O)[C@@H](NC(=O)c2nonc2C)C2CCC(F)(F)CC2)c1)N1C[C@@H](C(F)(F)F)NC1=O [Example 211, N-((S)-1-(4,4-difluorocyclohexyl)-2-oxo-2-((4-((R)-1-((S)-2-oxo-4-(trifluoromethyl)imidazolidin-1-yl)propyl)pyridin-2-yl)amino)ethyl)-4-methyl-1,2,5-oxadiazole-3-carboxamide]
58 | COC[C@H](c1ccnc(NC(=O)[C@@H](NC(=O)C(F)(F)c2cccc(C#N)c2)[C@H]2CC[C@H](C)CC2)c1)N1C[C@@H](C(F)(F)F)NC1=O (relative stereo) [Example 247, 2-(3-Cyanophenyl)-2,2-difluoro-N—((S)-2-((4-((S)-2-methoxy-1-((S)-2-oxo-4-(trifluoromethyl)imidazolidin-1-yl)ethyl)pyridin-2-yl)amino)-1-((1r,4S)-4-methylcyclohexyl)-2-oxoethyl)acetamide]
21 | CC(c1ccnc(NC(=O)[C@@H](NC(=O)c2nonc2C2CC2)C2CCC(F)(F)CC2)c1)N1C[C@@H](C(F)(F)F)NC1=O (single isomer, unassigned) [Example 170, 4-cyclopropyl-N-((S)-1-(4,4-difluorocyclohexyl)-2-oxo-2-((4-((R or S)-1-((S)-2-oxo-4-(trifluoromethyl)imidazolidin-1-yl)ethyl)pyridin-2-yl)amino)ethyl)-1,2,5-oxadiazole-3-carboxamide]
39 | COC[C@H](c1ccnc(NC(=O)[C@@H](NC(=O)c2nocc2C)C2CCC(F)(F)CC2)c1)N1C[C@@H](C(F)(F)F)NC1=O [Example 196, N-((S)-1-(4,4-difluorocyclohexyl)-2-((4-((S)-2-methoxy-1-((S)-2-oxo-4-(trifluoromethyl)imidazolidin-1-yl)ethyl)pyridin-2-yl)amino)-2-oxoethyl)-4-methylisoxazole-3-carboxamide]
6 | COCC(c1ccnc(NC(=O)[C@@H](NC(=O)c2nonc2C)[C@H]2CC[C@H](C)CC2)c1)N1C[C@@H](C(F)(F)F)NC1=O (single isomer, unassigned) [Example 86]
